Measured values reported in patent publication EP4653001A1, “TREATMENT, DIAGNOSIS AND/OR PROGNOSIS OF MITOCHONDRIAL DISEASES” (Universidad Autónoma de Madrid, priority 2024, dated 2025).

Tests used:
143B cells = assay: Stable isotope tracing with uniformly labeled 13C-glutamine; assay type: cell-based; conditions: [U-13C]glutamine
Procedure: 1-5.0×10^6 cells were harvested on dry ice with 1 mL pre-chilled 80% HPLC-grade methanol (Fluka Analytical). The cell mixture was incubated for 15 min on dry ice prior to centrifugation at 18,000 × g for 10 min at 4°C. The supernatant was retained, and the remaining cell pellet was resuspended in 800 µL chilled 80% methanol and centrifuged. Supernatant was combined with the previous retention and was lyophilized using a SpeedVac (Thermo Fisher). Lyophilized samples were resuspended in 20 µL ultrapure water and subjected to metabolomics profiling using the AB/SCIEX 5500 QTRAP triple quadrupole instrument. Data analysis was performed using the GiTools software. 13C-labeled glutamine and glucose was acquired in SIGMA (605166 and 389374).
Encouraged by the beneficial effects of ME1 and because ME1-dependent NADPH production is linked to intracellular malate levels, we sought to investigate the metabolic pathways and nutrients that maintain malate production upon disruption of the ETC. It is firmly believed that in cells and tissues with defective ETC function, elevated NADH/NAD+ ratio inhibits the Pyruvate dehydrogenase complex (PDC), suppressing pyruvate entry into the mitochondria and forcing its channelling towards the Lactate Dehydrogenase (LDH) in the cytosol. […] To investigate the metabolic routes that ETC-inhibited cells used to generate glutamine-derived malate, we performed an MS-based stable isotope tracing study. DMSO and Piericidin treated 143B cells were cultured in glucose-DMEM supplemented with 2 mM of uniformly labeled [^13C]glutamine, and the incorporation of ^13C into the TCA cycle and related metabolic intermediates was quantified. Oxidative metabolism of [U-^13C]glutamine would generate M+4 isotopologues of oxaloacetate (OAA) and malate, while reductive carboxylation due to ETC inhibition (TCA cycle running in a counterclockwise direction) would produce M+3 forms of OAA and malate. DMSO-treated 143B cells used glutamine as the major anaplerotic precursor, resulting in a large amount of malate M+4. As expected, the oxidation of glutamine via the TCA cycle in CI-inhibited cells was severely diminished with a 5-fold decreased in M+4 labeled malate. Nevertheless, these cells produced citrate M+5 through reductive carboxylation of glutamine-derived a-ketoglutarate. This reaction involves addition of an unlabeled carbon by IDH2 acting in reverse relative to the canonical oxidative TCA cycle. Malate M+3 also rose more than a ~2-fold in CI-inhibited cells and was likely formed after cleavage of citrate M+5 by ATP-citrate lyase (ACLY) since this induction was blunted in ACLY KO cells. Thus, cells with defective ETC use glutamine-dependent reductive carboxylation rather than oxidative metabolism as the major pathway of malate production. […]

astrocytes = assay: ATP measurement in astrocytes (ATP Assay Kit); assay type: cell-based, mouse; conditions: 100 nM, 24 h
Procedure: Primary cultures of C57BL/6 mouse cortical astrocytes were derived from postnatal day 2-3 pups. They were plated on pre-treated dishes coated with Poly-L-lysine (100 µg/ml) and cultured in DMEM/F-12 (ThermoFisher) supplemented with 15% FBS and 1% penicillin/streptomycin (P/S). After 24 hours of plating, the medium was switched to 10% FBS.
ATP Assay Kit (Abcam, #ab83355) was used to analyze ATP levels. Briefly, Cells were seeded in M24 plates (neurons at 500,000 cells/mL and monolayer density for astrocytes), and for the ATP experiments, three wells per condition were combined. An alternative deproteinization protocol was applied to purify the samples, and a Colorimetric Assay was conducted as outlined in the original protocol. The measurements were obtained using the CLARIOstar Plus plate reader from BMG LABTECH.

[1] = CI-inhibited vs DMSO 143B cells

SMILES: CC=C(C)C(O)C(C)C=C(C)C=CCC(C)=CCc1nc(OC)c(OC)c(O)c1C (centres unmarked) [Piericidin, Piericidin A]
- decrease in M+4 labeled malate (143B cells; [1]): 5 fold
- rise of Malate M+3 (143B cells; [1]): > 2 fold
- labeling of malate M+3 (143B cells; control and PC KO cells, 24 h): increasing
- malate M+4 (143B cells; control and PC KO cells, 24 h): reduction
- ATP levels (astrocytes): did not cause any alteration
